This note sets out measurements from patent US10201564B2, “Methods of using inhaled nitric oxide gas for treatment of acute respiratory distress syndrome in children” (Mallinckrodt Hospital Products IP Limited, priority 2014, dated 2019).

Format in all cases: in vivo, human
The subject of data set [1] is patients with moderately severe Acute Lung Injury (ALI). The data set is described as follows: Adult ALI/ARDS study, 5 ppm iNO versus placebo: efficacy and respiratory parameters. The note with it: for mortality, benefit versus control: adults. The protocol:
A large-scale, randomized, blinded, placebo-controlled study was carried out in the Intensive Care Units (ICUs) of 46 US hospitals to evaluate the efficacy of low-dose (5 ppm) iNO in 385 patients with moderately severe Acute Lung Injury (ALI). The primary endpoint of this study was number of days alive and off assisted breathing.
Patients had acute lung injury (ALI), defined by a modification of American-European Consensus Conference criteria (PaO2/inspired oxygen concentration [FiO2] ratio of ≤250 mm Hg), due to causes other than severe sepsis. Patients with evidence of non-pulmonary system failure at the time of randomization and sepsis-induced ARDS were excluded. Patients were also excluded if they had sustained hypotension requiring vasopressor support, hemodynamic profiles supporting severe sepsis, severe head injury, severe burns, or evidence of other significant organ system dysfunction at baseline.
Patients were randomly assigned to receive either inhaled placebo gas (nitrogen) or 5 ppm of iNO (INO Therapeutics Inc., Port Allen, La.). All patients, healthcare professionals, and investigators were blinded to the assigned treatment. Inhaled NO was administered via INOvent® delivery system (Datex-Ohmeda, Madison, Wis.) that blended treatment gas (nitrogen or NO at 100-ppm balance nitrogen) 1:20 with ventilator gases to achieve a target ppm value in the inspiratory limb of the ventilator.
All patients using the iNO delivery system received mechanical ventilatory support. Treatment continued with active or placebo gas until one of the following criteria were met: [1] end of trial (28 days); [2] death; or [3] adequate oxygenation (arterial oxygen saturation by pulse oximetry [SpO2]≥92% or PaO2 of ≥63 mm Hg) without treatment gas at ventilator settings of FiO2≤0.4 and positive end-expiratory pressure (PEEP) of ≤5 cm H2O. Decreases in treatment gas continued in 20% decrements (titrated down by 1 ppm for inhaled NO) every 30 minutes until either the treatment gas concentration reached 0% or oxygenation criteria were not satisfied. If oxygenation criteria were not met, treatment gas concentration was titrated up until they were again achieved. Increments of upward titration were determined by the clinician, based on degree of arterial desaturation.
Baseline oxygenation measures included PaO2, arterial partial pressure of CO2 (PaCO2), SpO2, FiO2, PEEP, PaO2/FiO2 ratio, […], tidal volume, and mean airway pressure. Respiratory parameters (FiO2, PEEP, and PaO2/FiO2 ratio) were recorded on case report forms every 12 hours during mechanical ventilation.
Between-group differences in baseline clinical and demographic characteristics were assessed with the Fisher's exact test and the chi-square test for categorical variables and with the Wilcoxon rank sum test for continuous variables. Baseline oxygenation and respiratory/oxygenation parameters in the two groups were compared using Wilcoxon rank sum tests. The areas under the curve (AUCs) of FiO2, PEEP, and PaO2/FiO2 ratio were calculated using the trapezoidal rule. The null hypothesis that the respective AUCs were normally distributed was rejected employing the Shapiro-Wilk test. A Wilcoxon rank sum test was utilized to assess the differences in each median AUC between treatment groups. A p value <0.05 was considered significant.

In data set [2] the test system is pediatric subjects with acute hypoxemic respiratory failure (AHRF). The data set is described as follows: Pediatric AHRF study: percent methemoglobin levels. The note with it: 5 ppm. The method, then: (§1) Standardized ventilatory management and weaning procedures were used. Ventilatory management was used based on an “open lung approach” using positive end-expiratory pressure (PEEP) to increase lung volume and limiting tidal volumes to reduce plateau pressures. Subjects received nitric oxide for inhalation at 5 ppm or placebo (100% Grade 5 nitrogen gas) into the inspiratory limb of the ventilator circuit using a blinded version of the INOvent® delivery system. The subjects were treated until Day 28 or extubation, whichever occurred first. Subjects were assessed daily using a spontaneous breathing trial, according to the institution's standard of care. Arterial blood gases (ABG), ventilator settings, methemoglobin, oxygenation index, systolic blood pressure, diastolic blood pressure, Pediatric Risk of Mortality (PRISM) III score, and subject positioning (prone or supine) were performed/recorded at specified times during the study. Selected centers also performed plasma cytokine assays, bronchoalveolar lavage fluid (BALF) assays, and a 6-month follow-up assessment.
(§2) The following assessments were made at baseline: arterial blood gases, ventilator settings, methemoglobin, prone position, PRISM III score, oxygenation index, systolic and diastolic blood pressure, bronchoalveolar lavage fluid assay and plasma cytokine.
The following assessments were made at 4 hours±1 hour after the start of therapy: arterial blood gases, ventilator settings and methemoglobin.
(§3) The following assessments were made at 24 hours±2 hours after the start of therapy: arterial blood gases, ventilator settings, methemoglobin, systolic and diastolic blood pressure and plasma cytokine.
Percent methemoglobin levels were obtained at baseline and at Hours 4 and 24. […] These levels were well below levels that would have necessitated discontinuation of treatment.

For data set [3] the test system is unchanged. As to the kind of experiment: Pediatric AHRF study: vital signs (systolic and diastolic blood pressure). The following applies: 5 ppm. The method, then:
as §1, §2, §3
Mean systolic and diastolic blood pressure increased slightly from baseline in both groups at 24 hours. Descriptive statistics for systolic and diastolic blood pressure, which were taken both at baseline and at 24 hours, are summarized Table 26.

Regarding `[N]=O` [Nitric Oxide, nitric oxide], the “days alive and meeting oxygenation criteria for extubation, benefit versus control” value in data set [1] (5 ppm iNO vs nitrogen gas, intent-to-treat) is recorded as “no significant benefit”. Further, the “mortality, benefit versus control” value in data set [1] (5 ppm iNO vs nitrogen gas, intent-to-treat, listed as Inhaled NO) is reported as “did not improve”. Also, the “mortality, benefit versus control” value in data set [1] (5 ppm iNO vs nitrogen gas, intent-to-treat, listed as iNO) was “no significant benefit”. Besides, in data set [1] (during mechanical ventilation, iNO vs placebo), the “aggregate per-patient changes from baseline in supplemental oxygen, PEEP, or PaO2/FiO2 ratio, between groups” value was “no significant differences”. In addition, in data set [1] (initial 24 hours of treatment, resolved by 48 hours, p<0.05), the “partial pressure of arterial oxygen (PaO2)” value was “significant increase”. The “days alive and off assisted breathing, benefit versus control” value in data set [1] (primary endpoint, 5 ppm iNO vs nitrogen gas, intent-to-treat) is “no significant benefit”. For the same molecule, in data set [2] (4 Hours), the “Methemoglobin level, Mean (SD)” value is 0.64 (0.33) % and the “Methemoglobin level, Median” value was 0.8%. In addition, in data set [2] (24 Hours), the “Methemoglobin level, Mean (SD)” value was 0.52 (0.37) % and the “Methemoglobin level, Median” value is on record as 0.5%. Moreover, in data set [2] (Baseline), the “Methemoglobin level, Mean (SD)” value was 0.56 (0.35) % and the “Methemoglobin level, Median” value stood at 0.5%. In addition, in data set [2] (at most time points, in words), the “Percent methemoglobin levels versus placebo group” value is “equal to or less than”. Besides, in data set [2] (baseline, Hours 4 and 24, in words), the percent methemoglobin levels result is “within normal limits”. Further, in data set [3] (24 Hours), the “Diastolic BP, Mean (SD)” value was 56.0 (12.7) mmHg; the “Diastolic BP, Median” value is reported as 54.5 mmHg; the “Systolic BP, Mean (SD)” value is given as 97.9 (21.7) mmHg; the “Systolic BP, Median” value is recorded as 103.0 mmHg. Besides, in data set [3] (Baseline), the “Diastolic BP, Mean (SD)” value was 54.6 (11.6) mmHg; the “Diastolic BP, Median” value was 55.5 mmHg; the “Systolic BP, Mean (SD)” value is recorded as 94.4 (17.4) mmHg; the “Systolic BP, Median” value stood at 95.5 mmHg.
